Marks after values point to notes of the source that are not given here. [I] = hypoxanthine (inosine); d = 2'-deoxy (DNA); m = 2'-O-methyl
How the values were obtained:
[1] = Monomer and tetramer formation of IRPs, size-exclusion HPLC; assay type: physicochemical; settings: 100 mg/mL in PBS and 0.5M KCl, room temperature, five weeks
Experimental: Solutions were prepared of the by mixing 100 mg/mL of the IRP sequences in PBS and 0.5M KCl and storing at room temperature for three to five weeks. The solutions were subsequently analyzed by size-exclusion HPLC.

human B-cells = assay: Human B-cells cultured in the presence of IRPs, IL-6
Experimental: For the human B-cell assay, B-cells were purified from total blood cells obtained from healthy donors using magnetic beads (CD19 positive). Cells were resuspended in fresh medium (RPMI 1640 with 10% fetal calf serum, 50 units/mL penicillin, 50 μg/mL streptomycin, and 2 mM glutamine). At 48 hours, supernatants were collected and cytokine levels, IL-6, were measured using immunoassay.
To further investigate the effect of IRPs on B-cell stimulatory activity, a wide variety of IRP sequences were assayed for IL-6, along with positive and negative controls. The experiment was performed as described in Example 1 using doses of IRP of either 4.0 μM or 2.0 μM. The positive control was an immunostimulatory sequence (ISS) with SEQ ID NO:157. […] The results are presented as the average normalized IL-6 response over several experiments.

[2] = High dosages of IRPs in rats (weight, deaths, histology); assay type: in vivo, Sprague Dawley rats; settings: for Heart: Cell Vacuolation, number of animals / Heart: Hemorrhage, number of animals / Heart: Mononuclear Cell Infiltration, number of animals / Heart: Necrosis, number of animals / Heart: No significant changes, number of animals / Liver: Liver changes, number of animals / Liver: Mixed cell infiltration, number of animals / Liver: Necrosis, number of animals / Liver: No significant changes, number of animals / Liver: Vacuolation, number of animals / Right Kidney: Hydronephrosis, number of animals / Right Kidney: Mineralization, number of animals / Right Kidney: Necrosis, number of animals / Right Kidney: No significant changes, number of animals / Right Kidney: Tubular basophilia, number of animals / Right Kidney: Tubular changes, number of animals: 6 animals
Experimental: To test the activity of IRPs at high dosages in rats, IRPs (SEQ ID NO:42 and SEQ ID NO:109) or a control (PBS) were subcutaneously administered to 8-9 weeks old, […], 3, 6, and 9 (n=6 per group). Rats were weighed prior to administration and on days 1, 3, 4, 6, 7, and 9. Organs were harvested at the end of the study, and organ weights and tissues levels of the oligonucleotides were determined. In addition, histolocial evaluation of the liver, kidney, and heart was performed.
Rats were weighed prior to administration and on days 1, 3, 6, 7, and 9. Organs were harvested at the end of the study, and organ weights and tissues levels of the oligonucleotides were determined. In addition, histological evaluation of the liver, kidney, and heart was performed.

[3] = High dosages of IRPs in mice (weight, histology); assay type: in vivo, BALB/c mice; settings: for Liver: Liver changes, number of animals / Liver: Mixed cell infiltration, number of animals / Liver: No significan changes, number of animals / Right Kidney: No significant changes, number of animals / Right Kidney: Tubular basophilia, number of animals / Right Kidney: Tubular changes, number of animals: 6 animals; for Heart: No significant changes, number of animals: tissue missing in two animals
Experimental: To test the activity of IRPs at high dosages in mice, IRPs or a control (saline) were subcutaneously administered to BALB/c mice at a dosage of 4 mg/kg, 20 mg/kg, 50 mg/kg, or 100 mg/kg on days 1, 4, 7, and 10 (n=5 per group). Mice were weighed prior to administration and on days 2, 4, 7, 9, and 11. Serum cytokines were assayed at two hours post the first and third injections and 24 hours post the fourth injection. Organs were harvested at the end of the study, and organ weights and tissues levels of the oligonucleotides were determined. In addition, histological evaluation of the liver, kidney, and heart was performed.
Mice were weighed prior to administration and on days 1, 3, 4, 6, 7, and 9. Organs were harvested at the end of the study, and organ weights and tissues levels of the oligonucleotides were determined. In addition, histological evaluation of the liver, kidney, and heart was performed.

[4] = rat, 10 mg/kg, 0 = no change to 4 = severe
[5] = rat, 90 mg/kg, 0 = no change to 4 = severe
[6] = 50 mg/kg, 0 = no change to 4 = severe
[7] = 100 mg/kg, 0 = no change to 4 = severe
[8] = Experiment # 4, Max Conc 4.0 uM
[9] = Experiment # 7, Max Conc 4.0 uM
[10] = Experiment # 5, Max Conc 4.0 uM
[11] = Experiment # 6, Max Conc 4.0 uM

Substance: 5′-TGC TCC TGG AGI GGT TG-HEG-T-3′ (DNA TGCTCCTGGAGNGGTTGNT; inosine, internal HEG spacer, chemistry not fully specified) [SEQ ID NO:143]
- fraction in monomer form [1]: 100%
- Normalized IL-6 Response (Percentage of Positive Control) (human B-cells; Experiment # 3, Max Conc 4.0 uM): 5%
- B-cell stimulatory activity (human B-cells; FIG. 1C, percent IL-6 from CpG-ISS): low B-cell stimulatory activity
- toxicity profile ([2]; rat histology): favorable toxicity profiles
- Heart: Cell Vacuolation, number of animals ([2]; rat, 10 mg/kg): 0
- Heart: Hemorrhage, number of animals ([2]; rat, 10 mg/kg): 0
- Heart: Mononuclear Cell Infiltration, number of animals ([2]; rat, 10 mg/kg): 0
- Heart: Necrosis, number of animals ([2]; rat, 10 mg/kg): 0
- Heart: No significant changes, number of animals ([2]; rat, 10 mg/kg): 6
- Liver: Liver changes, number of animals ([2]; rat, 10 mg/kg): 0
- Liver: Mixed cell infiltration, number of animals ([2]; rat, 10 mg/kg): 5
- Liver: Necrosis, number of animals ([2]; rat, 10 mg/kg): 0
- Liver: No significant changes, number of animals ([2]; rat, 10 mg/kg): 1
- Liver: Vacuolation, number of animals ([2]; rat, 10 mg/kg): 2
- Right Kidney: Hydronephrosis, number of animals ([2]; rat, 10 mg/kg): 0
- Right Kidney: Mineralization, number of animals ([2]; rat, 10 mg/kg): 1
- Right Kidney: Necrosis, number of animals ([2]; rat, 10 mg/kg): 0
- Right Kidney: No significant changes, number of animals ([2]; rat, 10 mg/kg): 0
- Right Kidney: Tubular basophilia, number of animals ([2]; rat, 10 mg/kg): 0
- Right Kidney: Tubular changes, number of animals ([2]; rat, 10 mg/kg): 6
- Liver: Mixed cell infiltration, mean severity score [2, 4]: 1.4
- Liver: Vacuolation, mean severity score [2, 4]: 1.5
- Right Kidney: Mineralization, mean severity score [2, 4]: 2.0
- Right Kidney: Tubular changes, mean severity score [2, 4]: 1.1
- Heart: cellular vacuolation ([2]; rat, 90 mg/kg): present in some animals
- Kidney: tubular basophilia ([2]; rat, 90 mg/kg): occurred
- Liver: hepatocellular cytoplasmic vacuolation ([2]; rat, 90 mg/kg): hepatocellular cytoplasmic vacuolation
- Heart: Cell Vacuolation, number of animals ([2]; rat, 90 mg/kg): 5
- Heart: Hemorrhage, number of animals ([2]; rat, 90 mg/kg): 0
- Heart: Mononuclear Cell Infiltration, number of animals ([2]; rat, 90 mg/kg): 0
- Heart: Necrosis, number of animals ([2]; rat, 90 mg/kg): 0
- Heart: No significant changes, number of animals ([2]; rat, 90 mg/kg): 1
- Liver: Liver changes, number of animals ([2]; rat, 90 mg/kg): 6
- Liver: Mixed cell infiltration, number of animals ([2]; rat, 90 mg/kg): 1
- Liver: Necrosis, number of animals ([2]; rat, 90 mg/kg): 0
- Liver: No significant changes, number of animals ([2]; rat, 90 mg/kg): 0
- Liver: Vacuolation, number of animals ([2]; rat, 90 mg/kg): 5
- Right Kidney: Hydronephrosis, number of animals ([2]; rat, 90 mg/kg): 0
- Right Kidney: Mineralization, number of animals ([2]; rat, 90 mg/kg): 2
- Right Kidney: Necrosis, number of animals ([2]; rat, 90 mg/kg): 0
- Right Kidney: No significant changes, number of animals ([2]; rat, 90 mg/kg): 0
- Right Kidney: Tubular basophilia, number of animals ([2]; rat, 90 mg/kg): 3
- Right Kidney: Tubular changes, number of animals ([2]; rat, 90 mg/kg): 6
- Heart: Cell Vacuolation, mean severity score [2, 5]: 1.0
- Liver: Liver changes, mean severity score [2, 5]: 2.1
- Liver: Mixed cell infiltration, mean severity score [2, 5]: 1.0
- Liver: Vacuolation, mean severity score [2, 5]: 2.7
- Right Kidney: Mineralization, mean severity score [2, 5]: 2.0
- Right Kidney: Tubular basophilia, mean severity score [2, 5]: 1.0
- Right Kidney: Tubular changes, mean severity score [2, 5]: 1.8
- Heart: Chronic inflammation, number of animals ([3]; 50 mg/kg): 2
- Heart: Mineralization, number of animals ([3]; 50 mg/kg): 1
- Heart: Chronic inflammation, mean severity score [3, 6]: 2.0
- Heart: Mineralization, mean severity score [3, 6]: 4.0
- Liver: Liver changes, mean severity score [3, 6]: 2.0
- Liver: Mixed cell infiltration, mean severity score [3, 6]: 3.0
- Right Kidney: Tubular basophilia, mean severity score [3, 6]: 2.0
- Liver: Liver changes, number of animals ([3]; 50 mg/kg): 6
- Liver: Mixed cell infiltration, number of animals ([3]; 50 mg/kg): 6
- Liver: No significan changes, number of animals ([3]; 50 mg/kg): 0
- Right Kidney: No significant changes, number of animals ([3]; 50 mg/kg): 5
- Right Kidney: Tubular basophilia, number of animals ([3]; 50 mg/kg): 1
- Right Kidney: Tubular changes, number of animals ([3]; 50 mg/kg): 0
- Heart: No significant changes, number of animals ([3]; 50 mg/kg): 1**
- Heart: Chronic inflammation, number of animals ([3]; 100 mg/kg): 0
- Heart: Mineralization, number of animals ([3]; 100 mg/kg): 1
- Heart: Mineralization, mean severity score [3, 7]: 3.0
- Liver: Mixed cell infiltration, mean severity score [3, 7]: 1.0
- Liver: Liver changes, number of animals ([3]; 100 mg/kg): 0
- Liver: Mixed cell infiltration, number of animals ([3]; 100 mg/kg): 1
- Liver: No significan changes, number of animals ([3]; 100 mg/kg): 5
- Right Kidney: No significant changes, number of animals ([3]; 100 mg/kg): 6
- Right Kidney: Tubular basophilia, number of animals ([3]; 100 mg/kg): 0
- Right Kidney: Tubular changes, number of animals ([3]; 100 mg/kg): 0
- Heart: No significant changes, number of animals ([3]; 100 mg/kg): 3**

Substance: 5′-UGCTGCTCCTTGAGGGGTTGUU UG U (DNA UGCTGCTCCTTGAGGGGTTGUUUGU; sugars from the 5' end m3 d16 m6, backbone not given here) [SEQ ID NO:104]
- Normalized IL-6 Response (Percentage of Positive Control) (human B-cells; [8]): 7%
- Normalized IL-6 Response (Percentage of Positive Control) (human B-cells; [9]): 7%

Substance: 5′-TGCTGCTCCTTGAGGGGTTGTTTGT-3′ (DNA TGCTGCTCCTTGAGGGGTTGTTTGT; DNA, backbone and methylation of C not given here; further chemistry not fully specified) [SEQ ID NO:58]
- Normalized IL-6 Response (Percentage of Positive Control) (human B-cells; [10]): 33%
- Normalized IL-6 Response (Percentage of Positive Control) (human B-cells; [11]): 29%

Substance: 5′-TGC TGC TCC TTG AGI GGT TGT TTG T-3′ (DNA TGCTGCTCCTTGAGNGGTTGTTTGT; DNA, [I] at 15, backbone and methylation of C not given here) [SEQ ID NO:62]
- Normalized IL-6 Response (Percentage of Positive Control) (human B-cells; [8]): 49%
- Normalized IL-6 Response (Percentage of Positive Control) (human B-cells; [9]): 49%

Substance: 5′-TGC TCC TTG AGI GGT TGT-3′ (DNA TGCTCCTTGAGNGGTTGT; DNA, [I] at 12, backbone not given here) [SEQ ID NO:71]
- Normalized IL-6 Response (Percentage of Positive Control) (human B-cells; [8]): 12%
- Normalized IL-6 Response (Percentage of Positive Control) (human B-cells; [10]): 15%
- Normalized IL-6 Response (Percentage of Positive Control) (human B-cells; [11]): 10%
- Normalized IL-6 Response (Percentage of Positive Control) (human B-cells; [9]): 12%
- Normalized IL-6 Response (Percentage of Positive Control) (human B-cells; Experiment # 8, Max Conc 2.0 uM): 4%
- Normalized IL-6 Response (Percentage of Positive Control) (human B-cells; Experiment # 9, Max Conc 2.0 uM): 14%

Substance: 5′TGC TCC TTG AGI GGT TGT TTG T-3′ (DNA TGCTCCTTGAGNGGTTGTTTGT; DNA, [I] at 12, backbone not given here) [SEQ ID NO:63]
- Normalized IL-6 Response (Percentage of Positive Control) (human B-cells; [8]): 46%
- Normalized IL-6 Response (Percentage of Positive Control) (human B-cells; [10]): 48%
- Normalized IL-6 Response (Percentage of Positive Control) (human B-cells; [11]): 41%
- Normalized IL-6 Response (Percentage of Positive Control) (human B-cells; [9]): 46%

Substance: 5′-TGCTTGTCCTGGAGGGGTTGT-3′ (DNA, backbone not given here; further chemistry not fully specified) [SEQ ID NO:43]
- Normalized IL-6 Response (Percentage of Positive Control) (human B-cells; [9]): 9%

Reference: patent US8940310B2, “Methods of treatment using TLR7 and/or TLR9 inhibitors” (Dynavax Technologies Corporation, priority 2010, dated 2015)
